Like-named read-outs stand apart in the source and are kept apart here.
What was measured:
[1] = biological target: T1, CES1 (Homo sapiens, UniProt P23141); experiment: Hydrolysis of 4-methylumbelliferyl oleate; format: biochemical
T1 sequence (P23141 18-567): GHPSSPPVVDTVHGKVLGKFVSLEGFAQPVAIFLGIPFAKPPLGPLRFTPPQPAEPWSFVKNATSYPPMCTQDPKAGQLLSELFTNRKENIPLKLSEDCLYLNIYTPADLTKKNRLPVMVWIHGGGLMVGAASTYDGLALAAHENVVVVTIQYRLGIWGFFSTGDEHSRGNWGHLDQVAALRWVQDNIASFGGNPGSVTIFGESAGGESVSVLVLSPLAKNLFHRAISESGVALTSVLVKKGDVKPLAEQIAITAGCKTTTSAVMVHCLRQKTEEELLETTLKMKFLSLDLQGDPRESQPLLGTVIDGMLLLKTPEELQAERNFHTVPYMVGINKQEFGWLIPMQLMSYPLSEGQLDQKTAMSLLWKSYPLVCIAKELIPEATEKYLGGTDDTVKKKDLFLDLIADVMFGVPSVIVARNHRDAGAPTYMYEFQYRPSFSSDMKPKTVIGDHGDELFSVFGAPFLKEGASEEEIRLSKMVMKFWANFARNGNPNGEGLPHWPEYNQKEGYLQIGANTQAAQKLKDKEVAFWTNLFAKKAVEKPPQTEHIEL

[2] = biological target: T2, porcine pancreatic CEL (Sus scrofa, UniProt A0A286ZKB1); experiment: Hydrolysis of 4-MUBO by porcine bile-salt stimulated cholesterol esterase; format: biochemical; settings: 4-MUBO substrate; no bile salts added; Supplementary Fig. 1
T2 sequence (A0A286ZKB1 1-682): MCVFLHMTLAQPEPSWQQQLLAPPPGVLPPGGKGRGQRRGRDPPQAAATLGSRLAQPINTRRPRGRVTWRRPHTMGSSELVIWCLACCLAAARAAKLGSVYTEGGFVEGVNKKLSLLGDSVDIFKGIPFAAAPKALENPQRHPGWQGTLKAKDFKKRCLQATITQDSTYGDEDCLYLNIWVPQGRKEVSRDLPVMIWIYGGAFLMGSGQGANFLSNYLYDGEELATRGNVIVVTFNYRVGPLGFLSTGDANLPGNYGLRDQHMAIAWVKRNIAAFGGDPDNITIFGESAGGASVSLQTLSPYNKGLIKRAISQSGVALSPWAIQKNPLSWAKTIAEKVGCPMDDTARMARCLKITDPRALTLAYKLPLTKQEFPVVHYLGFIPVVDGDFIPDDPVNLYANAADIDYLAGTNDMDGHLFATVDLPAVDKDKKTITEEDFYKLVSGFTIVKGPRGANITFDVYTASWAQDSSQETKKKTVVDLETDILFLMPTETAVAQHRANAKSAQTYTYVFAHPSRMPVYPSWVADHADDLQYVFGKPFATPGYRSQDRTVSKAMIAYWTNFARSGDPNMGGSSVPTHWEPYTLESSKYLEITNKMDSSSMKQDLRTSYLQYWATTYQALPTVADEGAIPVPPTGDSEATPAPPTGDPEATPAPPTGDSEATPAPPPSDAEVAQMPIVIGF

[3] = system: THP-1 macrophages; experiment: Cholesteryl ester retention in cholesterol-loaded THP-1 macrophages; format: cell-based, human; settings: for Total cellular cholesterol content of macrophages / Free cholesterol levels: 50 μM benzil or 10 μM paraoxon, 48-h efflux period; for Free cholesterol levels: vs vehicle
[4] = biological target: T3, carboxylesterase activity in THP-1 macrophages (Homo sapiens, UniProt P23141); format: cell-based
T3 sequence (P23141 18-567): T1 sequence (P23141 18-567)

[5] = system: intracellular carboxylesterase activity in U373MG cells; settings: cited from earlier work
[6] = biological target: T4, carboxylesterase activity of human THP-1 cell lysates (CES1) (Homo sapiens, UniProt P23141); format: biochemical; settings: para-nitrophenyl valerate
T4 sequence (P23141 18-567): T1 sequence (P23141 18-567)

[7] = system: cholesteryl ester hydrolase activity in human THP1 cell lysate; experiment: Hydrolysis of cholesteryl [1-14C]oleate; format: biochemical; settings: 10 μM paraoxon for 10 min before 75 μM cholesteryl [1-14C]oleate
[8] = system: lipolytic activity of THP-1 cell lysates; experiment: Hydrolysis of 4-MUBO by THP-1 cell lysates; format: biochemical, human; settings: paraoxon up to 10 μM; Supplementary Fig. 2
[9] = biological target: T1, CES1; format: binding
[10] = biological target: T5, carboxylesterase activity (CES1) in intact THP-1 cells (Homo sapiens, UniProt P23141); experiment: Carboxylesterase activity after 24-h treatment of intact THP-1 monocytes; format: cell-based; settings: for Inhibition of carboxylesterase activity in intact THP-1 monocytes: 24 h treatment of intact cells, activity measured in lysates; for Relative effectiveness at inhibiting carboxylesterase activity in intact cells: 24 h treatment, comparison of the three oxons
T5 sequence (P23141 18-567): T1 sequence (P23141 18-567)

[11] = system: THP-1 cells; experiment: Cell viability by Trypan Blue exclusion after oxon exposure; format: cell-based, human; settings: 24 h, concentrations of oxon used, data not shown
[12] = system: CES1 protein expression; experiment: Western blot of CES1 protein in paraoxon-treated THP-1 cells; format: cell-based, human; settings: 10 μM paraoxon 24 h
[13] = cited from earlier work

Compound | Inhibition of CEL [2] | Total cellular cholesterol content of macrophages [3] | Free cholesterol levels [3] | Inhibition of carboxylesterase activity in cell lysates [6] | Inhibition of carboxylesterase activity in intact THP-1 monocytes [10] | Relative effectiveness at inhibiting carboxylesterase activity in intact cells [10] | Overall cell viability [11] | Lipophilicity rank among the three oxons [13] | also measured
O=C(C(=O)c1ccccc1)c1ccccc1 [Benzil, diphenylethane-1,2-dione] | does not inhibit | did not significantly change | similar | – | – | – | – | – | Inhibition of lipase activity of CES1 [1]: can be inhibited; Increase in intracellular cholesteryl ester levels ([3]; 50 μM benzil during 48-h cholesterol efflux period): > 3 fold; Carboxylesterase activity in cell lysate from treated macrophages [4]: not significantly inhibited; Inhibition of intracellular carboxylesterase activity ([5]; U373MG cells transfected with plasmids containing mammalian CES cDNA): effective inhibitor; Cell permeability ([5]; U373MG cells): cell-permeable; Cytotoxicity ([5]; U373MG cells): non-cytotoxic
CCOP(=O)(OCC)Oc1ccc([N+](=O)[O-])cc1 [Paraoxon] | very sensitive | did not significantly change | modest but significant reduction | inhibited carboxylesterase activity in cell lysates in a concentration-dependent manner | inhibited by each oxon in a dose-dependent manner | most effective | did not affect overall cell viability | – | Reduction of CEH activity of THP1 cell lysates [7]: 23%; Inhibition of lipase activity of CES1 ([1]; 4-MUBO substrate, Supplementary Fig. 1): can be inhibited; Inhibition of lipolytic activity of THP-1 cell lysates toward 4-MUBO [8]: no significant inhibiton of lipase activity; Paraoxon concentrations that completely inhibited FP-biotin labeling of CES1 ([9]; lysate 1 mg/ml pre-treated 15 min at 37°C, then 2 μM FP-biotin 1 h): > 1 nM; Effect on FP-biotin labeling of CES1 ([9]; pre-treatment with paraoxon at 0.01 nM): did not prevent labeling; CES1 activity on native PAGE gels ([10]; intact cells, 10 μM paraoxon 24 h, α,β-naphthyl acetate stain): markedly inhibited; Amount of CES1 protein compared to control (vehicle) treated cells [12]: no difference; Intracellular cholesteryl ester retention ([3]; 10 μM paraoxon during 48-h cholesterol efflux): significant increase; Inhibition of carboxylesterase activity in cell lysate from treated macrophages ([4]; 10 μM paraoxon, compared to control cells, p≤0.05): 81%
COP(=O)(OC)Oc1ccc([N+](=O)[O-])cc1 [Methyl paraoxon] | – | – | – | inhibited carboxylesterase activity in cell lysates in a concentration-dependent manner | inhibited by each oxon in a dose-dependent manner | – | did not affect overall cell viability | least lipophilic | –
CCOP(=O)(OCC)Oc1nc(Cl)c(Cl)cc1Cl [Chlorpyrifos oxon] | – | – | – | inhibited carboxylesterase activity in cell lysates in a concentration-dependent manner | inhibited by each oxon in a dose-dependent manner | least effective | did not affect overall cell viability | most lipophilic | –

Reference: PMC2574903 (Biochimica et biophysica acta, 2008)
